# Reference: US20140228682A1, “IMAGING PROBES, IMAGING SYSTEMS, AND METHODS OF IMAGING” (priority 2013, published 2014)
# What was measured:
# cartilage [1] = assay: small animal PET imaging of cartilage / osteoarthritis joints in mice; assay type: in vivo
# Procedure: The mice were injected with ^89Zirconium oxalate through tail vein and then imaged by small animal PET.
# (§1) The mice were injected with tracer through tail vein and then imaged at 5 days post-injection by small animal PET (left two columns of images) and optical imaging instrument (in vivo and ex vivo) (right two columns images).
# cartilage [2] = assay: optical (Cerenkov) imaging of joints in mice, in vivo and ex vivo; settings: FIG. 3, tail vein injection, 5 days post-injection, optical imaging instrument (in vivo and ex vivo)
# Procedure: as §1
# [3] = FIG. 3, tail vein injection, 5 days post-injection
substance,measurement,setting,value
^89Zr oxalate,signal in OA joints,"cartilage [1]; FIG. 2, tail vein injection",low signal
same,signal in sham and untreated joints,"cartilage [1]; FIG. 2, tail vein injection",high signal
same,signal in OA joints,cartilage [1]; [3],low signal
same,signal in sham and untreated joints,cartilage [1]; [3],high signal
same,signal in OA joints,cartilage [2],low signal
same,signal in sham and untreated joints,cartilage [2],high signal
